# Data published in article PMC7316994, “In Vitro Pharmacological Profile of a New Small Molecule Bradykinin B2 Receptor Antagonist” (Frontiers in Pharmacology, 2020).
# Where two headings read alike, the source gives them in different places. Peptide text beside a SMILES is read from it.
# Key:
# [1] = target: T1, endogenous human B2 receptor (Homo sapiens, UniProt P30411); assay: human isolated umbilical vein contractility assay, BK-induced contraction; conditions: for type of antagonism of BK: BK concentration-effect curves, Emax; for pA2 / Kb: Schild plot; for pA2 / Kb / Schild plot slope: Pharm/PCS, ± S.E.M. where given; for Kb: read-out: pA2 (converted); for Schild plot slope: Schild regression; for Maximal BK-induced response in absolute force units ± S.E.M.: vehicle: Icatibant 1.90, Compound 1 […]; for pA2 value converted into nM: potency from pA2
# T1 construct: BK-induced contraction at endogenous human B2 receptor in the umbilical vein model; from tissue; host or cells: human umbilical vein rings (donor cords after elective caesarean section)
# T1 sequence (P30411 1-391): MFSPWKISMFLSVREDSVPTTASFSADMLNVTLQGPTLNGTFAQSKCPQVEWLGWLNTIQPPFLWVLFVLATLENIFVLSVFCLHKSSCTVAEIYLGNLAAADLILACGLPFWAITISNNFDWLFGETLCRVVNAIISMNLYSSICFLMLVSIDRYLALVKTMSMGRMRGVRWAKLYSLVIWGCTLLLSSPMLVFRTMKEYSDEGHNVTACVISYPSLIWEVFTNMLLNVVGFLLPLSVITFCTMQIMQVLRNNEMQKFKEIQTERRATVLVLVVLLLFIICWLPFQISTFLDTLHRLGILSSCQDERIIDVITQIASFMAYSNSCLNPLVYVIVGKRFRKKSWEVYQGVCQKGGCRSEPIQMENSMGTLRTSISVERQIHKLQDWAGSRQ
# 5-HT2A receptor = target: T2, 5-HT2A receptor (Homo sapiens, UniProt P28223); assay: umbilical vein, serotonin-induced contraction; conditions: Compound 2 10 μM; Compound 3 1 μM
# T2 construct: other endogenously expressed receptors in the human umbilical vein; from tissue; host or cells: human umbilical vein rings
# T2 sequence (P28223 whole entry): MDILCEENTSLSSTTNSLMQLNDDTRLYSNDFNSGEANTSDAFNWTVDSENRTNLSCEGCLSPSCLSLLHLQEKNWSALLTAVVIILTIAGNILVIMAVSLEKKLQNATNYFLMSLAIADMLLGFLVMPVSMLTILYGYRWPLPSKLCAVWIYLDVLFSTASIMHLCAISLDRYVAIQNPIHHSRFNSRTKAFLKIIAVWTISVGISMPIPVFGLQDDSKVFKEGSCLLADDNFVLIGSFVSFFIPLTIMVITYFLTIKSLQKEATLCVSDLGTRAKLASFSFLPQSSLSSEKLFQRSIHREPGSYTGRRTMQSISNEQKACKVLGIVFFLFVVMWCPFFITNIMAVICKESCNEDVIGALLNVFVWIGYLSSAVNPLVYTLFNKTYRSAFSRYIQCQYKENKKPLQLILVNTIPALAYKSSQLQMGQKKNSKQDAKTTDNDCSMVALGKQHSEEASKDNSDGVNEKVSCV
# Source text: (§1) The local ethics committee (CHU de Québec-Université Laval) had approved the project (File no. 2017-3720). Umbilical cords were obtained following elective caesarean sections; all problematic deliveries are excluded. Informed consent was obtained from the mothers. The cords were transported from the maternity ward to the laboratory in sterile Hank's balanced salt solution containing penicillin and streptomycin. Segments of umbilical veins were dissected carefully from the cords and a metal rod was inserted in the lumen. Excess connective tissue was excised and rings (2–3 mm wide) were cut. Rings of umbilical veins were suspended in 5-mL organ chambers containing oxygenated (95% O2, 5% CO2) and warmed (37°C) Krebs' solution between a metal hook and a thread loop. This solution had the following composition: NaCl 117.5 mM, KCl 4.7 mM, KH2PO4 1.2 mM, MgSO4 1.18 mM, CaCI2 2.5 mM, NaHCO3 25.0 mM, and D-glucose 5.5 mM. A baseline of one gram-weight was applied to these preparations. Changes of tension were recorded by using isometric transducers (model 52-9545, Harvard Bioscience, South Natick MA). Eight tissue baths are operated in parallel.
# (§2) For this purpose, contractile responses to serotonin, acting on the 5-HT2A receptor, and U-46619, acting at the prostanoid TP receptor, were measured ([Rogines-Velo et al., 2002]; [Daray et al., 2003]).
# prostanoid TP receptor = target: T3, prostanoid TP receptor (Homo sapiens, UniProt P21731); assay: umbilical vein, U-46619-induced contraction; conditions: Compound 2 10 μM; Compound 3 1 μM
# T3 construct: endogenous human prostanoid TP receptors in the umbilical vein model; from tissue; host or cells: human umbilical vein rings
# T3 sequence (P21731 whole entry): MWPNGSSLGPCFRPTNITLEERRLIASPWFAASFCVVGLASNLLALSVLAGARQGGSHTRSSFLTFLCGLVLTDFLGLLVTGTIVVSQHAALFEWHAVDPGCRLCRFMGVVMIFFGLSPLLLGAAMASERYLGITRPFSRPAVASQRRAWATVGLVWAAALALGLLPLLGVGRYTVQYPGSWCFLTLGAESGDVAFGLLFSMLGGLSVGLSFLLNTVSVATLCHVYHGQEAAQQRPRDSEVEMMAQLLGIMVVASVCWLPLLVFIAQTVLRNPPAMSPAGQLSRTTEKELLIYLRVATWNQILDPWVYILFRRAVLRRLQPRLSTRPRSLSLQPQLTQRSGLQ
# Source text: as §1, §2
# human myc-B2 receptor = target: T4, human myc-B2 receptor (Homo sapiens, UniProt P30411); assay: c-Fos immunoblot, HEK 293a cells stably expressing myc-B2 receptor; type: cell-based; conditions: BK 10 nM
# T4 construct: expressed in transfected cells
# T4 sequence (P30411 1-391): T1 sequence (P30411 1-391)
# Source text: Supplementary Methods: Immunoblots for c-Fos signaling
# The construction of myc-tagged B2 receptor expression vector containing the human receptor sequence has been recently reported, as well as the derivation of HEK293a cell lines that stably express the construction (Charest-Morin et al., 2015). Immunoblotting experiments, conducted as described (Koumbadinga et al., 2010), were used to study the effect of selected antagonists on BK-induced signaling. Briefly, HEK 293a cells stably expressing the human myc-B2 receptor were stimulated with BK agonists for 60 min at 37°C, with or without a pretreatment with the antagonist (applied 15 min before BK). Total cell extracts were immunoblotted to detect c-Fos expression using the K-25 rabbit polyclonal antibodies (Santa Cruz Biotechnology, Dallas, TX; dilution 1:50,000). In these experiments, β-actin was used as a loading control and was detected using the monoclonal anti-β-actin antibody, clone AC-15 (Sigma-Aldrich; dilution 1:50,000).
# [2] = target: T5, myc-tagged human B2 receptor (Homo sapiens, UniProt P30411); assay: antibody internalization assay, HEK 293a cells; type: cell-based; conditions: BK 100 nM; antagonist 1 nM to 1 μM, 15 min before BK
# T5 construct: expressed in transfected cells
# Method: B2 receptor-mediated transport of immune complexes constructed at the cell surface was previously reported ([Bawolak et al., 2011]). Intact HEK 293a cells stably expressing the N-terminally myc-tagged B2 receptor construction (human sequence, [Charest-Morin et al., 2015]) were treated with the monoclonal anti-myc antibody (clone 4A6) conjugated with AlexaFluor-488 (Millipore, dilution 1:500) added to the culture medium. Cells were further incubated at 37°C. Without rinsing, a selected antagonist or their DMSO vehicle was added 5 min later, and BK (100 nM) or its saline vehicle 15 min later. After an additional 30 min incubation period at 37°C, cells were rinsed 3 times with Hank's balanced salt solution (Multicell Wisent, St. Bruno, Canada) and photographed in transmission and epifluorescence using an Olympus BX51 microscope coupled to a CoolSnap HQ digital camera (filters for AlexaFluor 488: excitation 460–500 nm, emission 510–560 nm).
# microsomal stability = conditions: for microsomal CLint at 1 µM: male, Wistar, rat, liver microsomes, pH 7.4
# B2 receptor [3] = target: T6, B2 receptor (Homo sapiens, UniProt P30411); assay: [^3H]BK competition binding assay, CHO cell membranes; design: host or cells: CHO cells; conditions: for IC50 / Ki: competition with 0.3 nM [^3H]BK; for fold lower affinity compared to Compound 3 and icatibant: radioligand binding
# T6 sequence (P30411 1-391): T1 sequence (P30411 1-391)
# B2 receptor [4] = target: T6, B2 receptor; assay: Ca^2+ mobilization assay, transfected CHO cells; type: cell-based; design: host or cells: CHO cells; conditions: for IC50 / Kb: inhibition of response to 0.03 nM BK
# [5] = Caco-2 permeation assay (bidirectional); conditions: human
# [6] = target: T7, cynomolgus monkey B2 receptor (Macaca fascicularis, UniProt A0A7N9CWN6); conditions: mean ± S.D.
# T7 sequence (A0A7N9CWN6 1-391): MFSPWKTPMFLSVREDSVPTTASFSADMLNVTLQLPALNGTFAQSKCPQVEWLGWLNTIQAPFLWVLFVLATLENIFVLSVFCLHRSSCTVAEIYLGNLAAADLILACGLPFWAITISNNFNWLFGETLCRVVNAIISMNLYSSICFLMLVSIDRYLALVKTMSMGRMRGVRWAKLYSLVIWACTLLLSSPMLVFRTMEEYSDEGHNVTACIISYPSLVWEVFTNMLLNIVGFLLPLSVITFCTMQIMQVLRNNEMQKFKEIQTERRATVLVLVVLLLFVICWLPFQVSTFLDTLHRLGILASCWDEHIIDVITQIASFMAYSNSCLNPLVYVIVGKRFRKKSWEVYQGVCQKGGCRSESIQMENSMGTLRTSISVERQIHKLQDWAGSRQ
# [7] = target: T7, cynomolgus monkey B2 receptor; assay: cell-based
# [8] = antagonist 10 nM, Compound 2 2.25, Compound 3 1.52
# [9] = antagonist 100 nM, Compound 2 2.25, Compound 3 1.52
# [10] = antagonist 1 μM, Compound 2 2.25, Compound 3 1.52
# [11] = antagonist 10 μM, Compound 2 2.25
# [12] = arithmetic mean, read-out: IC50 (nM) Mean
# [13] = arithmetic mean, read-out: Ki (nM) Mean
# [14] = geometric mean, read-out: IC50 (nM) Geometric mean
# [15] = geometric mean, read-out: Ki (nM) Geometric mean
# [16] = arithmetic mean, read-out: Kb (nM) Mean
# [17] = geometric mean, read-out: Kb (nM) Geometric mean
type of antagonism of BK [1],pA2 [1],Kb [1] [nM],Schild plot slope [1],"Maximal BK-induced response in absolute force units ± S.E.M. [1, 8] [grams-weight]","Maximal BK-induced response in absolute force units ± S.E.M. [1, 9] [grams-weight]","Maximal BK-induced response in absolute force units ± S.E.M. [1, 10] [grams-weight]","Maximal BK-induced response in absolute force units ± S.E.M. [1, 11] [grams-weight]",pA2 value converted into nM [1] [nM],microsomal CLint at 1 µM (microsomal stability) [µL/min/mg],IC50 (B2 receptor [3]; [12]) [nM],Ki (B2 receptor [3]; [13]) [nM],IC50 (B2 receptor [3]; [14]) [nM],Ki (B2 receptor [3]; [15]) [nM],fold lower affinity compared to Compound 3 and icatibant (B2 receptor [3]),IC50 (B2 receptor [4]; [12]) [nM],Kb (B2 receptor [4]; [16]) [nM],IC50 (B2 receptor [4]; [14]) [nM],Kb (B2 receptor [4]; [17]) [nM],"Papp A→B at 60 min, 10 µM [5] [×10⁻⁶ cm/s]",SMILES,other results
competitive,9.02 ± 0.31,0.955,−0.65,2.07 ± 0.30,2.26 ± 0.42,2.00 ± 0.32,1.82 ± 0.18,0.95,497,7.6,3.9,7.6,3.9,about 7 fold,9.57,1.08,8.3,0.95,3.9,"Cc1cc(-c2ncnn2C)c2cccc(OCc3c(Cl)cncc3C(C)NC(=O)COC(F)F)c2n1 (racemic) [Compound 2, rac-N-(1-(5-chloro-4-((2-methyl-4-(1-methyl-1H-1,2,4-triazol-5-yl)quinolin-8-yloxy)methyl)pyridin-3-yl)ethyl)-2-(difluoromethoxy)acetamide]","effect on serotonin-induced contraction (5-HT2A receptor): failed to modify; effect on U-46619-induced contraction (prostanoid TP receptor): failed to modify; antagonist concentration that significantly reduced the c-Fos response to BK (human myc-B2 receptor; 60 min): 100 nM; effect on BK-induced c-Fos accumulation (human myc-B2 receptor; co-treatment between 10 nM and 1 μM): inhibited this response in a concentration-dependent manner; concentration with clear efficacy in inhibiting BK-induced endocytosis [2]: ≥ 100 nM; fold lower intrinsic clearance compared with Compound 3 (so in the source) (microsomal stability; rat microsomal stability assay): 18 fold; fold lower potency compared with Compound 3 (B2 receptor [4]; B2 receptor): 4.0 fold; Papp B→A at 60 min, 10 µM [5]: 29.9 ×10⁻⁶ cm/s; efflux ratio at 60 min, 10 µM [5]: 7.7"
–,–,–,–,–,–,–,–,–,–,–,–,–,–,–,–,–,–,–,–,N=C(N)NCCC[C@H](NC(=O)[C@H](Cc1ccccc1)NC(=O)[C@@H]1CCCN1C(=O)[C@H](CO)NC(=O)[C@H](Cc1ccccc1)NC(=O)CNC(=O)[C@@H]1CCCN1C(=O)[C@@H]1CCCN1C(=O)[C@@H](N)CCCNC(=N)N)C(=O)O [BK] (H-RPPGFSPFR-OH),"average agonist EC80, Ca^2+ mobilization [6]: 0.539 ± 0.16 nM"
–,–,–,–,–,–,–,–,–,–,–,–,–,–,–,–,–,–,–,–,NC(N)=NCCC[C@H](NC(=O)[C@H](Cc1ccccc1)NC(=O)[C@@H]1CCCN1C(=O)[C@H](CO)NC(=O)[C@H](Cc1ccccc1)NC(=O)CNC(=O)[C@@H]1CCCN1C(=O)[C@@H]1CCCN1C(=O)[C@@H](N)CCCN=C(N)N)C(=O)O [BK] (H-RPPGFSPFR-OH),EC50 [7]: 0.155 ± 0.043 nM
competitive,8.58 ± 0.26,2.63,−0.62,1.48 ± 0.24,2.08 ± 0.28,1.46 ± 0.20,1.67 ± 0.28,2.63,960,7.4,3.8,7.4,3.8,about 7 fold,11.3,1.3,11,1.24,5.5,"Cc1cc(-c2ncnn2C)c2cccc(OCc3c(Cl)cncc3CNC(=O)C3CCCCC3)c2n1 [Compound 1, N-((5-chloro-4-((2-methyl-4-(1-methyl-1H-1,2,4-triazol-5-yl)quinolin-8-yloxy)methyl)pyridin-3-yl)methyl)cyclohexanecarboxamide]","Papp B→A at 60 min, 10 µM [5]: 20.9 ×10⁻⁶ cm/s; efflux ratio at 60 min, 10 µM [5]: 5.5"
